The source of these data is ChEMBL document CHEMBL5338785, “Development of Aromatic-Linked Diamino Acid Antimicrobial Peptide Mimics with Low Hemolytic Toxicity and Excellent Activity against Methicillin-Resistant Staphylococcus aureus (MRSA)” (J Med Chem, 2023).

In data set [1] the test system is Staphylococcus aureus. The data set can be described thus: Antibacterial activity against methicillin-resistant Staphylococcus aureus assessed as resistance development by measuring increase in MIC measured after 14 days by resistance development assay (reference value: 1 ug/ml). Type of data set: functional. As to conditions: 336 h, time 14 day.
In data set [2] the test system is Staphylococcus aureus. The data set can be described thus: Antibacterial activity against methicillin-resistant Staphylococcus aureus assessed as bacterial growth inhibition incubated for 18 hrs by CLSI protocol based Mueller-Hinton broth assay. Type of data set: functional.
For a further data set, the system named is Enterococcus faecalis. The data set can be described thus: Antibacterial activity against Enterococcus faecalis assessed as bacterial growth inhibition incubated for 18 hrs by CLSI protocol based Mueller-Hinton broth assay. Type of data set: functional.
A further data set deals with Escherichia coli. In words: Antibacterial activity against Escherichia coli assessed as bacterial growth inhibition incubated for 18 hrs by CLSI protocol based Mueller-Hinton broth assay. The data set is classed as functional.
Data set [3] concerns Stenotrophomonas maltophilia. The data set can be described thus: Antibacterial activity against Stenotrophomonas maltophilia assessed as bacterial growth inhibition incubated for 18 hrs by CLSI protocol based Mueller-Hinton broth assay. Type of data set: functional.
In the next data set the test system is Erythrocyte. In words: (§1) Hemolytic activity in sheep RBC assessed as hemolysis incubated for 1 hr by microplate reader method. Type of data set: toxicity, cell-based, Ovis aries. Particulars: erythrocyte, 1 h.
Data set [4] in a line: Selectivity index, ratio of HC50 for hemolytic activity in sheep RBC to MIC for antibacterial activity against methicillin-resistant Staphylococcus aureus assessed as bacterial growth inhibition. The data set is classed as toxicity. Particulars: for Ratio: erythrocytes; for selectivity ratio: sheep red blood cells.
Data set [5] can be described thus: as §1. The data set is classed as toxicity, cell-based, Ovis aries, Erythrocyte. As to conditions: sheep red blood cells.
Data set [6] relates to Staphylococcus aureus. The data set can be described thus: Bactericidal activity against methicillin-resistant Staphylococcus aureus at 3 ug/ml measured after 12 hrs by time-killing kinetics assay. Type of data set: functional, organism-based. As to conditions: dose 3.0 µg/ml.
Data set [7] has as its system Staphylococcus aureus. In words: In vivo antibacterial activity against methicillin-resistant Staphylococcus aureus infected in SPF Kunming mouse assessed as reduction in amount of bacteria measure per abscess at 5 mg/kg ,ip administered every 12 hrs for 3 consecutive days. Type of data set: functional. Particulars: time 3 day.
For data set [8], the system named is Staphylococcus aureus. In words: In vivo antibacterial activity against methicillin-resistant Staphylococcus aureus infected in SPF Kunming mouse assessed as reduction in neutrophils in skin tissue at 10 mg/kg ,ip administered every 12 hrs for 3 consecutive days. Type of data set: functional, organism-based. Particulars: time 3.0 day.
The subject of data set [9] is Staphylococcus aureus. The data set can be described thus: In vivo antibacterial activity against methicillin-resistant Staphylococcus aureus infected in SPF Kunming mouse assessed as reduction in inflammation in skin tissue at 10 mg/kg ,ip administered every 12 hrs for 3 consecutive days. Type of data set: functional, organism-based. As to conditions: time 3.0 day.

The subject of data set [10] is Staphylococcus aureus. In words: Bactericidal activity against methicillin-resistant Staphylococcus aureus assessed as reduction in turbidity at 3 ug/ml measured after 6 hrs. Type of data set: functional, organism-based. As to conditions: dose 3.0 µg/ml.
A short description of data set [11]: Cytotoxicity against HUVEC cells assessed as reduction in cell viability incubated for 72 hrs by CCK8 assay. Type of data set: toxicity, cell-based. Particulars: human.
The subject of data set [12] is Staphylococcus aureus. In words: Antibacterial activity against methicillin-resistant Staphylococcus aureus clinical isolates assessed as bacterial growth inhibition incubated for 18 hrs by CLSI protocol based Mueller-Hinton broth assay. Type of data set: functional.
[13] abbreviates: Staphylococcus aureus, read-out: MIC.
The mark [14] stands for this setting: Enterococcus faecalis, 18 h, read-out: MIC.
[15] abbreviates: Escherichia coli, 18 h, read-out: MIC.
Where [16] appears, read: Stenotrophomonas maltophilia, read-out: MIC.

Converted amounts (≈) assume the structure as drawn. The source made the active and inactive calls. Where only a bound is given, the exact number is not on record here.

In general, MIC refers to the smallest concentration in the dilution series that meets the test's criterion for growth inhibition. Regarding `CCn1cc(C(=O)O)c(=O)c2cc(F)c(N3CCNCC3)cc21` [NORFLOXACIN], the MIC in the data set with Staphylococcus aureus [1] was 128 µg/mL (≈ 401 µM).
One may read the HC50 as the concentration that lyses half of the red blood cells. Turning to `CCCCCCCN(CCCOc1ccc2ccccc2c1-c1c(OCCCN(CCCCCCC)C(=O)[C@@H](N)CCCCN)ccc2ccccc12)C(=O)[C@@H](N)CCCCN.Cl.Cl.Cl.Cl` (stereo in doubt; 8n), the MIC (in the data set with Staphylococcus aureus [2] (setting [13]); in the data set on Enterococcus faecalis (setting [14]); in the data set on Escherichia coli (setting [15]); in [3] (setting [16])) was 2 µg/mL in each case. The HC50 with Erythrocyte came out at 31 µg/mL. Further, the Ratio in data set [4] is reported as 15.5.
For the compound `CN[C@H](CC(C)C)C(=O)N[C@H]1C(=O)N[C@@H](CC(N)=O)C(=O)N[C@H]2C(=O)N[C@H]3C(=O)N[C@H](C(=O)N[C@H](C(=O)O)c4cc(O)cc(O)c4-c4cc3ccc4O)[C@H](O)c3ccc(c(Cl)c3)Oc3cc2cc(c3O[C@@H]2O[C@H](CO)[C@@H](O)[C@H](O)[C@H]2O[C@H]2C[C@](C)(N)[C@H](O)[C@H](C)O2)Oc2ccc(cc2Cl)[C@H]1O` [VANCOMYCIN], in data set [5], the HC50 at 1 h is greater than 1000 µg/mL. For the same compound, the outcome with Staphylococcus aureus [6], with Staphylococcus aureus [8], with Staphylococcus aureus [9] and with Staphylococcus aureus [10] was Active. In the data set with Staphylococcus aureus [7], the Activity stood at 14454.4 CFU.
Turning to `CCCCCCN(CCCOc1ccc2ccccc2c1-c1c(OCCCN(CCCCCC)C(=O)[C@@H](N)CCCCN)ccc2ccccc12)C(=O)[C@@H](N)CCCCN.Cl.Cl.Cl.Cl` (stereo in doubt; 8p), the minimum inhibitory concentration (MIC) in the data set on Staphylococcus aureus [2] worked out at 1 µg/mL; in the data set with Enterococcus faecalis, 1 µg/mL; with Escherichia coli, 2 µg/mL; in data set [3] it was 1 µg/mL. Further, in the data set with Erythrocyte, the HC50 was determined as 117 µg/mL. Moreover, in data set [4], the Ratio is reported as 117.
For orientation: CC50 means the concentration at which the toxic effect on the cells reaches its halfway point. Consider `C=C[C@]1(C)C[C@@H](OC(=O)CS[C@@H]2C[C@H]3CC[C@@H](C2)N3C)[C@]2(C)[C@H](C)CC[C@]3(CCC(=O)[C@H]32)[C@@H](C)[C@@H]1O` [RETAPAMULIN], for which the half-maximal cytotoxic concentration (CC50) at 72 h in data set [11] turned out to be 25.5 µg/mL (≈ 49.2 µM).
On to `CCCCCCCN(CCOc1ccc(OCCN(CCCCCCC)C(=O)[C@@H](N)CCCCN)cc1)C(=O)[C@@H](N)CCCCN.Cl.Cl.Cl.Cl`, for which the MIC came to 1 µg/mL with Staphylococcus aureus [2] (setting [13]); 1 µg/mL in the data set on Enterococcus faecalis (setting [14]); 4 µg/mL with Escherichia coli (setting [15]); 2 µg/mL in [3] (setting [16]); 0.5 µg/mL with Staphylococcus aureus [12]. Besides, the HC50 at 1 h in data set [5] worked out at 478 µg/mL. For the same compound, in [4], the selectivity ratio turned out to be 478.
In the case of `CCCCCCCN(CCCOc1ccc2ccccc2c1-c1c(OCCCN(CCCCCCC)C(=O)[C@@H](N)CCCCN)ccc2ccccc12)C(=O)[C@@H](N)CCCCN.Cl.Cl.Cl.Cl` (stereo in doubt; 8q), the MIC in the data set on Staphylococcus aureus [2] came to 2 µg/mL; with Enterococcus faecalis (18 h), 1 µg/mL; with Escherichia coli, 2 µg/mL; in [3], 2 µg/mL. Further, the HC50 in the data set on Erythrocyte amounted to 7 µg/mL. Moreover, the Ratio in [4] was 3.5.
Take `CCCCCCCCN(CCCOc1ccc2ccccc2c1-c1c(OCCCN(CCCCCCCC)C(=O)[C@@H](N)CCCCN)ccc2ccccc12)C(=O)[C@@H](N)CCCCN.Cl.Cl.Cl.Cl` (stereo in doubt; 8r): the MIC with Staphylococcus aureus [2] was 4 µg/mL; with Enterococcus faecalis, 2 µg/mL; in the data set with Escherichia coli (18 h), 4 µg/mL; in data set [3], 4 µg/mL. Further, the HC50 with Erythrocyte stood at 136 µg/mL. In addition, the Ratio in [4] amounted to 34.
`CC[C@H](C)[C@H](NC(=O)CN)C(=O)NCC(=O)N[C@@H](C)C(=O)N[C@H](C(=O)N[C@@H](CC(C)C)C(=O)N[C@@H](CCCCN)C(=O)N[C@H](C(=O)N[C@@H](CC(C)C)C(=O)N[C@H](C(=O)N[C@H](C(=O)NCC(=O)N[C@@H](CC(C)C)C(=O)N1CCC[C@H]1C(=O)N[C@@H](C)C(=O)N[C@@H](CC(C)C)C(=O)N[C@H](C(=O)N[C@@H](CO)C(=O)N[C@@H](Cc1c[nH]c2ccccc12)C(=O)N[C@H](C(=O)N[C@@H](CCCCN)C(=O)N[C@@H](CCCNC(=N)N)C(=O)N[C@@H](CCCCN)C(=O)N[C@@H](CCCNC(=N)N)C(=O)N[C@@H](CCC(N)=O)C(=O)N[C@@H](CCC(N)=O)C(N)=O)[C@@H](C)CC)[C@@H](C)CC)[C@@H](C)O)[C@@H](C)O)C(C)C)C(C)C` [MELITTIN]: the CC50 at 72 h in data set [11] was 5.8 µg/mL (≈ 2.04 µM).
Take `CCCCCCN(CCCOc1ccc(OCCCN(CCCCCC)C(=O)[C@@H](N)CCCCN)cc1)C(=O)[C@@H](N)CCCCN.Cl.Cl.Cl.Cl`: the MIC was 4 µg/mL with Staphylococcus aureus [2] (setting [13]); 4 µg/mL in the data set on Enterococcus faecalis (setting [14]); 16 µg/mL with Escherichia coli (setting [15]); 16 µg/mL in [3] (setting [16]); 0.5 µg/mL with Staphylococcus aureus [12]. Moreover, the HC50 at 1 h in data set [5] is greater than 1000 µg/mL. The selectivity ratio in data set [4] was greater than 250.
As for `CCCCCCN(CCCOc1cccc(OCCCN(CCCCCC)C(=O)[C@@H](N)CCCCN)c1)C(=O)[C@@H](N)CCCCN.Cl.Cl.Cl.Cl`, the MIC in the data set on Staphylococcus aureus [2] (setting [13]) was 2 µg/mL; in the data set on Enterococcus faecalis (setting [14]), 4 µg/mL; in the data set with Escherichia coli (setting [15]) it was 16 µg/mL; in data set [3] (setting [16]), 8 µg/mL; in the data set with Staphylococcus aureus [12], 0.5 µg/mL. Besides, in data set [5], the HC50 at 1 h is greater than 1000 µg/mL. Moreover, in data set [4], the selectivity ratio was greater than 500.
